Source: patent US10106538B2, “Inhibitors of protein kinases” (PRINCETON DRUG DISCOVERY INC, priority 2015, dated 2018)

How the values were obtained:
Experiment in all cases: Off-chip Mobility Shift Assay (MSA) kinase inhibition
Format in all cases: biochemical
[1] = target: T1, PDGFRβ (Homo sapiens, UniProt P09619); details: for inhibition at 0.1 µM: inhibitor concentration 0.1 μM
T1 construct: purchased Carna Biosciences
How it was run: (§1)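 Inhibition was determined by mobility shift detection after kinase, compound and substrate/ATP/metal were incubated together at room temperature for 1 or 5 hour(s), in pH 7.5 buffer of 20 mM HEPES with 0.01% Triton X100 and 2 mM DTT.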

[2] = target: T2, Erk2 (Homo sapiens, UniProt P28482); details: for inhibition at 0.1 µM: inhibitor concentration 0.1 μM
T2 construct: purchased Carna Biosciences
How it was run: as §1

[3] = target: T3, Erk5 (Homo sapiens, UniProt Q13164); details: for inhibition at 0.1 µM: inhibitor concentration 0.1 μM
T3 construct: purchased Carna Biosciences
How it was run: as §1

[4] = target: T4, ABL (Homo sapiens, UniProt P00519); details: for inhibition at 0.1 µM: inhibitor concentration 0.1 μM
T4 construct: purchased Carna Biosciences
How it was run: as §1

[5] = target: T5, SRC (Homo sapiens, UniProt P12931); details: for inhibition at 0.1 µM: inhibitor concentration 0.1 μM
T5 construct: purchased Carna Biosciences
How it was run: as §1

[6] = target: T6, MNK2 (Homo sapiens, UniProt Q9HBH9); details: for inhibition at 0.1 µM: inhibitor concentration 0.1 μM
T6 construct: purchased Carna Biosciences
How it was run: as §1

[7] = target: T7, LYNa (Homo sapiens, UniProt P07948); details: for inhibition at 0.1 µM: inhibitor concentration 0.1 μM
T7 construct: purchased Carna Biosciences
How it was run: as §1

[8] = target: T8, FLT3 (Homo sapiens, UniProt P36888); details: for inhibition at 0.1 µM: inhibitor concentration 0.1 μM
T8 construct: purchased Carna Biosciences
T8 sequence (P36888 27-993): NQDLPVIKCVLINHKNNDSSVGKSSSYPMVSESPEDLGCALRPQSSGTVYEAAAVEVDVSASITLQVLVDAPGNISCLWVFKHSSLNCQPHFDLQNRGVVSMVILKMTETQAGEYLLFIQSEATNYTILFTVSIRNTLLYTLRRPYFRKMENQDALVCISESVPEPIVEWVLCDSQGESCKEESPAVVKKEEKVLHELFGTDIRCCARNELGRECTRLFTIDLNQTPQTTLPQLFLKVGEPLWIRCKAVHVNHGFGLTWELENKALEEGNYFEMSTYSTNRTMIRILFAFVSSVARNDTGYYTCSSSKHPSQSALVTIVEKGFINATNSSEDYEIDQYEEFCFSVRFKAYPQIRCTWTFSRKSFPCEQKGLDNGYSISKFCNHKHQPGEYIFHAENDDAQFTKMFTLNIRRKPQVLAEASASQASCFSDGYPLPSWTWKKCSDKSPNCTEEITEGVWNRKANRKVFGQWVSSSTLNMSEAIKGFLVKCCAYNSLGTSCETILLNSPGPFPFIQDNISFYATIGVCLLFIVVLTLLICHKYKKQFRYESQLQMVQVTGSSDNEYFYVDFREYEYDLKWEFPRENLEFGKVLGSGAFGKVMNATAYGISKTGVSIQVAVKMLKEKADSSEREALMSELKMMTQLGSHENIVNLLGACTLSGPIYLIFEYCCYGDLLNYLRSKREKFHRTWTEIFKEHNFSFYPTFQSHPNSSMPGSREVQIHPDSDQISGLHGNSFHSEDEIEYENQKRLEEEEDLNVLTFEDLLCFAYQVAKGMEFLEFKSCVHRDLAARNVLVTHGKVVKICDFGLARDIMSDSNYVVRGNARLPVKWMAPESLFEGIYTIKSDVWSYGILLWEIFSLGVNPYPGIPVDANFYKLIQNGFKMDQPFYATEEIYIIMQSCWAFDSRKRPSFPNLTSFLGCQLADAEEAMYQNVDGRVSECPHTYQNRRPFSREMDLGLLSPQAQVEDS
How it was run: as §1

[9] = target: T9, JAK2 (Homo sapiens, UniProt O60674); details: for inhibition at 0.1 µM: inhibitor concentration 0.1 μM
T9 construct: purchased Carna Biosciences
How it was run: as §1

[10] = target: T10, MAP3K4 (Homo sapiens, UniProt Q9Y6R4); details: inhibitor concentration 0.1 μM
T10 construct: purchased Carna Biosciences
How it was run: as §1

[11] = target: T11, EGFR(L858R) (Homo sapiens, UniProt P00533, L858R); details: inhibitor concentration 0.1 μM
T11 construct: purchased Carna Biosciences
How it was run: as §1

[12] = target: T12, PIM3 (Homo sapiens, UniProt Q86V86); details: inhibitor concentration 0.1 μM
T12 construct: purchased Carna Biosciences
How it was run: as §1

[13] = target: T13, AurB (Homo sapiens, UniProt Q96GD4); details: inhibitor concentration 0.1 μM
T13 construct: purchased Carna Biosciences, Inc
How it was run: as §1

[14] = target: T14, AKT2 (Homo sapiens, UniProt P31751); details: inhibitor concentration 0.1 μM
T14 construct: purchased Carna Biosciences
How it was run: as §1

[15] = target: T15, PIM2 (Homo sapiens, UniProt Q9P1W9); details: inhibitor concentration 0.1 μM
T15 construct: purchased Carna Biosciences
How it was run: as §1

[16] = target: T16, BMX (Homo sapiens, UniProt P51813); details: inhibitor concentration 0.1 μM
T16 construct: purchased Carna Biosciences
T16 sequence (P51813 1-675): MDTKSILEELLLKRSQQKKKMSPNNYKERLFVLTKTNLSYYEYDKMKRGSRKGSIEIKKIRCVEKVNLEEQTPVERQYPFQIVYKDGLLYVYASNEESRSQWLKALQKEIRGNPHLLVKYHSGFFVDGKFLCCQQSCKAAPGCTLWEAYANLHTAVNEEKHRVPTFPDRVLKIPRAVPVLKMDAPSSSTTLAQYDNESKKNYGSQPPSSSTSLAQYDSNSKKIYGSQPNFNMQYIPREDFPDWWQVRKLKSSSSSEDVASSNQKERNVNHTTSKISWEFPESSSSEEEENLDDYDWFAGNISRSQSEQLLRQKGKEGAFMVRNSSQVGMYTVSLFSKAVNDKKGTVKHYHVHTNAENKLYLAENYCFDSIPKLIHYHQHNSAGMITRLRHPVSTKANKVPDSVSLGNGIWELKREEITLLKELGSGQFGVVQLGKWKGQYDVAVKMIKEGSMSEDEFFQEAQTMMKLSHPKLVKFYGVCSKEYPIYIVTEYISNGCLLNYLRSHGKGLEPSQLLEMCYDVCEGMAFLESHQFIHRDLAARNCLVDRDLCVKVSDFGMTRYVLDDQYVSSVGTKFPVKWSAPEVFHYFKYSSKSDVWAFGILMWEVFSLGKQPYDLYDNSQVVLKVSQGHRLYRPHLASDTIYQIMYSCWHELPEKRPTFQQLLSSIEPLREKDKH
How it was run: as §1

[17] = inhibitor concentration 0.01 μM
[18] = inhibitor concentration 0.01 μM, 0.01 µM

T10 sequence (Q9Y6R4 whole entry): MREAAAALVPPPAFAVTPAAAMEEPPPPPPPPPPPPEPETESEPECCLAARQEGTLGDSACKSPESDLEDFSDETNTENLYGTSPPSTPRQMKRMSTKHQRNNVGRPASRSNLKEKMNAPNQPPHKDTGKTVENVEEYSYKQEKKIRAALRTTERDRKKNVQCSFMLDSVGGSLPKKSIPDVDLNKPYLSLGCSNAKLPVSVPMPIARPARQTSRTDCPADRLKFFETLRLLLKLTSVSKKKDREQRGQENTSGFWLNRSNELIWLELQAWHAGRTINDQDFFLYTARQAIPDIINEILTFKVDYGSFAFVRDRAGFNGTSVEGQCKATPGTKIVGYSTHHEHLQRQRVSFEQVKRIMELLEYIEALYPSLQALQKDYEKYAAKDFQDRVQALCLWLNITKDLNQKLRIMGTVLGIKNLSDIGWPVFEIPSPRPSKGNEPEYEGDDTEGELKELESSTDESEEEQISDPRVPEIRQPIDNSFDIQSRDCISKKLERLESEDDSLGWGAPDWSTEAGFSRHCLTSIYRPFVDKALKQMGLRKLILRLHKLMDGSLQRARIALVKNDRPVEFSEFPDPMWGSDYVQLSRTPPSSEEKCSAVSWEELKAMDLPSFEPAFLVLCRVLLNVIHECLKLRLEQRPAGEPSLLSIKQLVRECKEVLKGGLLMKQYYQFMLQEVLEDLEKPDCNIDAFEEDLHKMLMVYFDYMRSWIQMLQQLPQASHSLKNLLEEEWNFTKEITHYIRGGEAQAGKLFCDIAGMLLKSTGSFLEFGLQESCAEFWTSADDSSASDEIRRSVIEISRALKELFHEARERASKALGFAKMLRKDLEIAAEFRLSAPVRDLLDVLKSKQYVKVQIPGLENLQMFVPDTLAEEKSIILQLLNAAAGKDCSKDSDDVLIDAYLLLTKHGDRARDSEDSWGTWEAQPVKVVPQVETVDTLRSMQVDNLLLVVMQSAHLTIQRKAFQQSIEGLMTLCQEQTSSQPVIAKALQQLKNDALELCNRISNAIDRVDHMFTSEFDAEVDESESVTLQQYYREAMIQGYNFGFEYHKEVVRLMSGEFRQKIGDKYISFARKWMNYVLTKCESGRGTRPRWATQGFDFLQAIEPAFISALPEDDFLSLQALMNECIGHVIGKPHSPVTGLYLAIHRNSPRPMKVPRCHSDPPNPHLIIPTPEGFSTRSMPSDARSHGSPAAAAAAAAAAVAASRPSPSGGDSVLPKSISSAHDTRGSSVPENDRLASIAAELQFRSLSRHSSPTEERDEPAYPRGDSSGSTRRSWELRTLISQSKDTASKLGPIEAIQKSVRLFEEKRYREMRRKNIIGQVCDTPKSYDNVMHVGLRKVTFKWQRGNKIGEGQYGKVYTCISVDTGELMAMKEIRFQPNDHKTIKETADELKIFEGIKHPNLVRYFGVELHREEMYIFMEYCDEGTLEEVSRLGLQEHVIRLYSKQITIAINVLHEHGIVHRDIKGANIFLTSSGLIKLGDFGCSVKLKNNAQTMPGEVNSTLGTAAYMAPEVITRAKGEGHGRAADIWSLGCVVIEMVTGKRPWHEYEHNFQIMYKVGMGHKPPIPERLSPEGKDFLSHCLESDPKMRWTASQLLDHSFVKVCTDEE
T13 sequence (Q96GD4 whole entry): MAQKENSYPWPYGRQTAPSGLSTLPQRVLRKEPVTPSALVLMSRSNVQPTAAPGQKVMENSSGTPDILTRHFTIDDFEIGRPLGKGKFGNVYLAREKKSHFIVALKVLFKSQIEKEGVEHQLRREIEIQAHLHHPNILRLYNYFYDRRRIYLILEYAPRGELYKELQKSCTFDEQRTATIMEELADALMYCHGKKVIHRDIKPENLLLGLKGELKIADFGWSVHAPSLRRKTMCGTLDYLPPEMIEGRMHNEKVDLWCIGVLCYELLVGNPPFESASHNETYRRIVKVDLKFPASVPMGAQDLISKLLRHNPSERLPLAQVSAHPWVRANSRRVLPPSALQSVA
T13 sequence (Q9NQS7 803-918 partner limits assumed): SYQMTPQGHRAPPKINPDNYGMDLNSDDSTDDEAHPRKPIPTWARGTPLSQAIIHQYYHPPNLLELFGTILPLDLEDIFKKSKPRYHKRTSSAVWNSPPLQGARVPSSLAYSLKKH
T7 sequence (P07948 whole entry): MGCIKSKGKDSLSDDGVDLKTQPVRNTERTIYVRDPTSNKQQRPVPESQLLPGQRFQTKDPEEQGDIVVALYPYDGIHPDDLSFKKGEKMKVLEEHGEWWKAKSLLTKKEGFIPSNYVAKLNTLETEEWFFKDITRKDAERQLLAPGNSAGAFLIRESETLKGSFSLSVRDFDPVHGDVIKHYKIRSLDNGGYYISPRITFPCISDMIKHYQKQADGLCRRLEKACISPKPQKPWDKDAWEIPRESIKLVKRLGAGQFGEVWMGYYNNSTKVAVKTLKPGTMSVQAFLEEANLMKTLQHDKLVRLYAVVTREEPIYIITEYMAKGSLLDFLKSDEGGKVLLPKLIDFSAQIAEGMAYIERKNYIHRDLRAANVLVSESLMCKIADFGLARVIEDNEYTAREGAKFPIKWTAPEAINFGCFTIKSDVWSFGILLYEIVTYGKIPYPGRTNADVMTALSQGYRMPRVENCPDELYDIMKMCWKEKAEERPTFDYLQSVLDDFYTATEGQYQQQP
T3 sequence (Q13164 whole entry): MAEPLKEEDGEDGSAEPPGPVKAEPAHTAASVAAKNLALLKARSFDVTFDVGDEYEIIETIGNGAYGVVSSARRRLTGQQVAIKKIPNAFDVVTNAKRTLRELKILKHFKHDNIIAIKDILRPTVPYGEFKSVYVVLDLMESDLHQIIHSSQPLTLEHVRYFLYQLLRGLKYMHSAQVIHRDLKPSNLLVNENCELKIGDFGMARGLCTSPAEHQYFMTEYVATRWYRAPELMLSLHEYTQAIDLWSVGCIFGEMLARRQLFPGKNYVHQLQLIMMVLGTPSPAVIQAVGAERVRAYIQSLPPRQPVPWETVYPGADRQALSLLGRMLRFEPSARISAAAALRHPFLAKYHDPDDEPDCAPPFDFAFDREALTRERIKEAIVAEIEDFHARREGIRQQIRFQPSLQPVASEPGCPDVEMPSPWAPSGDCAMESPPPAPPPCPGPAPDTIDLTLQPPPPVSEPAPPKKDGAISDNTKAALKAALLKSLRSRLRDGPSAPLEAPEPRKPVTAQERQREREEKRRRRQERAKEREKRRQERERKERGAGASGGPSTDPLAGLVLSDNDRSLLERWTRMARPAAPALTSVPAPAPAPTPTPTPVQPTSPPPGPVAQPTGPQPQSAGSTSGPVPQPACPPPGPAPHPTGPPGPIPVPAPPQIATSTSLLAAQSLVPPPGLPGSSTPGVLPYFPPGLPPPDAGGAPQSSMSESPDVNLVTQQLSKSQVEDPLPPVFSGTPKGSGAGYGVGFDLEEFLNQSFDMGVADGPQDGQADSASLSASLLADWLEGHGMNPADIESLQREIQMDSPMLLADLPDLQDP
T9 sequence (O60674 whole entry): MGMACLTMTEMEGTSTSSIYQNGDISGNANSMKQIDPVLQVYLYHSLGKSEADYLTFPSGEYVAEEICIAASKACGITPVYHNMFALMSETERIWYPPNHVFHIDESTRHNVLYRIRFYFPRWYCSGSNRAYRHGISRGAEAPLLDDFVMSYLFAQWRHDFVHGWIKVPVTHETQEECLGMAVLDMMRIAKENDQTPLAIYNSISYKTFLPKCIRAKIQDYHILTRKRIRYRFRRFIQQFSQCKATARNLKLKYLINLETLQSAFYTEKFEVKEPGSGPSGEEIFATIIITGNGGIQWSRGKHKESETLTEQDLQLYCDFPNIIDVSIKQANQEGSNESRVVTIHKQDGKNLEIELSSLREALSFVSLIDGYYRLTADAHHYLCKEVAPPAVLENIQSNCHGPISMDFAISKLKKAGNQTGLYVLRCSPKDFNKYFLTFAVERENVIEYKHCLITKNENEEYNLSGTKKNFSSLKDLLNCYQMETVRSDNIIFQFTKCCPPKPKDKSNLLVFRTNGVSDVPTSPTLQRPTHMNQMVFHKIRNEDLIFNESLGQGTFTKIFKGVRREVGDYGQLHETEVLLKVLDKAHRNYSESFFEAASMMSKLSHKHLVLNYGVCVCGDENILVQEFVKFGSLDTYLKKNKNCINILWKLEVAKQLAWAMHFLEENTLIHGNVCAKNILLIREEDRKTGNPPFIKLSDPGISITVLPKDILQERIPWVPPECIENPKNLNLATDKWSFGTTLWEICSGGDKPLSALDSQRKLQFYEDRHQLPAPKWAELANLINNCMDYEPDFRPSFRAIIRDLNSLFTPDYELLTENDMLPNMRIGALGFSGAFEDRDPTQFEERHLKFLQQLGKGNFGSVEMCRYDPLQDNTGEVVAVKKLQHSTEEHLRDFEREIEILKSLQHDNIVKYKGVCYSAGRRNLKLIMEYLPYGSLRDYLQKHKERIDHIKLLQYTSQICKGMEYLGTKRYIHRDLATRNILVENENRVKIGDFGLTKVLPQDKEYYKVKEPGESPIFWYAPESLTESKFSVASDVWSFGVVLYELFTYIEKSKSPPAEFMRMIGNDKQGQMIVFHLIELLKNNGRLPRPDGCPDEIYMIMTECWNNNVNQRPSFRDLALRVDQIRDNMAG
T2 sequence (P28482 whole entry): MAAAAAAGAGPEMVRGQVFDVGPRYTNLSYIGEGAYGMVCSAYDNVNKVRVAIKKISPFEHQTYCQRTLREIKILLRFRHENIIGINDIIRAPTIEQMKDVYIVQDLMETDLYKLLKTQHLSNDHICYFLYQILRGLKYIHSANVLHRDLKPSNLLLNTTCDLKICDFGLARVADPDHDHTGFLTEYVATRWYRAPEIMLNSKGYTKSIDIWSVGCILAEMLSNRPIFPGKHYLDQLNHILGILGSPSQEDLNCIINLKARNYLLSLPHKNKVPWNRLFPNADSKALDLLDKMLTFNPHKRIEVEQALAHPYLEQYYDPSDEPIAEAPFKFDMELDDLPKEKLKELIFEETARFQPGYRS

Which inhibition at 0.01 µM [1, 17] does the source give for `O=C(c1c(F)ccc(NS(=O)(=O)CCCO)c1F)c1c[nH]c2ncc(-c3ccc(Cl)cc3)cc12` [200-17, N-[3-[5-(4-chlorophenyl)-1H-pyrrolo[2,3-b]pyridine-3-carbonyl]-2,4-difluorophenyl]-3-hydroxypropane-1-sulfonamide] here?
The inhibition at 0.01 µM was less than 30%.

What about the inhibition at 0.1 µM [1] of the same compound?
Its inhibition at 0.1 µM is less than 50%.

And the inhibition at 1 µM ([1]; inhibitor concentration 1 μM)?
Its inhibition at 1 µM is greater than 50%.

What about the inhibition at 1 µM ([2]; inhibitor concentration 1 μM) of the same compound?
The inhibition at 1 µM was less than 50%.

And the inhibition at 1 µM ([3]; inhibitor concentration 1 μM)?
Its inhibition at 1 µM is greater than 50%.

And the inhibition at 1 µM ([4]; inhibitor concentration 1 μM)?
Its inhibition at 1 µM is less than 50%.

What about the inhibition at 0.01 µM [5, 17] of the same compound?
The inhibition at 0.01 µM was less than 30%.

And the inhibition at 0.1 µM [5]?
Its inhibition at 0.1 µM is greater than 50%.

What about the inhibition at 1 µM ([5]; inhibitor concentration 1 μM) of the same compound?
Its inhibition at 1 µM is greater than 50%.

And the inhibition at 1 µM ([6]; inhibitor concentration 1 μM)?
The inhibition at 1 µM was greater than 50%.

What about the inhibition at 0.01 µM [7, 17] of the same compound?
Its inhibition at 0.01 µM is less than 30%.

And the inhibition at 0.1 µM [7]?
Its inhibition at 0.1 µM is greater than 50%.

What about the inhibition at 1 µM ([7]; inhibitor concentration 1 μM) of the same compound?
Its inhibition at 1 µM is greater than 50%.

What about the inhibition at 1 µM ([8]; inhibitor concentration 1 μM) of the same compound?
The inhibition at 1 µM was greater than 50%.

What about the inhibition at 0.01 µM [9, 17] of the same compound?
The inhibition at 0.01 µM was less than 30%.

What about the inhibition at 0.1 µM [9] of the same compound?
The inhibition at 0.1 µM was greater than 50%.

And the inhibition at 1 µM ([9]; inhibitor concentration 1 μM)?
Its inhibition at 1 µM is greater than 50%.

What does the source list for `O=C(c1c(F)ccc(NS(=O)(=O)CC(O)CO)c1F)c1c[nH]c2ncc(-c3ccc(Cl)cc3)cc12` (stereo not drawn) [200-73, N-[3-[5-(4-chlorophenyl)-lH-pyrrolo [2,3-b]pyridine-3-carbonyl]-2,4-difluorophenyl]-2,3-dihydroxypropane-l-sulfonamide]?
inhibition at 0.1 µM [10]: < 30%; inhibition at 0.1 µM [1]: < 30%; inhibition at 0.1 µM [11]: < 30%; inhibition at 0.1 µM [12]: < 30%; inhibition at 0.1 µM [2]: < 30%; inhibition at 0.1 µM [13]: < 30%; inhibition at 0.1 µM [3]: < 30%; inhibition at 0.1 µM [4]: < 30%; inhibition at 0.1 µM [14]: < 30%; inhibition at 0.1 µM [5]: < 30%; inhibition at 0.1 µM [15]: < 30%; inhibition at 0.1 µM [6]: < 30%; inhibition at 0.1 µM [7]: < 30%; inhibition at 0.1 µM [8]: < 30%; inhibition at 0.1 µM [9]: < 30%; inhibition at 0.1 µM [16]: < 30%

Which results are given for `C/C=C/S(=O)(=O)Nc1ccc(F)c(C(=O)c2c[nH]c3ncc(-c4ccc(Cl)cc4)cc23)c1F` [200-93b]?
PDGFRβ inhibition [1, 18]: <20%; SRC inhibition [5, 18]: <20%; JAK2 inhibition [9, 18]: <20%

Which results are given for `CC(O)CS(=O)(=O)Nc1ccc(F)c(C(=O)c2c[nH]c3ncc(-c4ccc(Cl)cc4)cc23)c1F` (centres unmarked) [200-115]?
inhibition at 0.1 µM [10]: < 30%; inhibition at 0.1 µM [1]: < 30%; inhibition at 0.1 µM [11]: < 30%; inhibition at 0.1 µM [12]: < 30%; inhibition at 0.1 µM [2]: < 30%; inhibition at 0.1 µM [13]: < 30%; inhibition at 0.1 µM [3]: < 30%; inhibition at 0.1 µM [4]: < 30%; inhibition at 0.1 µM [14]: < 30%; inhibition at 0.1 µM [5]: < 30%; inhibition at 0.1 µM [15]: < 30%; inhibition at 0.1 µM [6]: < 30%; inhibition at 0.1 µM [7]: < 30%; inhibition at 0.1 µM [8]: < 30%; inhibition at 0.1 µM [9]: < 30%; inhibition at 0.1 µM [16]: < 30%

Which results are given for `CC(=O)CS(=O)(=O)Nc1ccc(F)c(C(=O)c2c[nH]c3ncc(-c4ccc(Cl)cc4)cc23)c1F` [200-117]?
inhibition at 0.1 µM [10]: < 30%; inhibition at 0.1 µM [1]: < 30%; inhibition at 0.1 µM [11]: < 30%; inhibition at 0.1 µM [12]: < 30%; inhibition at 0.1 µM [2]: < 30%; inhibition at 0.1 µM [13]: < 30%; inhibition at 0.1 µM [3]: < 30%; inhibition at 0.1 µM [4]: < 30%; inhibition at 0.1 µM [14]: < 30%; inhibition at 0.1 µM [5]: < 30%; inhibition at 0.1 µM [15]: < 30%; inhibition at 0.1 µM [6]: > 30%; inhibition at 0.1 µM [7]: > 30%; inhibition at 0.1 µM [8]: < 30%; inhibition at 0.1 µM [9]: < 30%; inhibition at 0.1 µM [16]: < 30%
